Measurements reported in patent US8828414B2, “Biocidal composition of 2,6-dimethyl-m-dioxane-4-ol acetate and methods of use” (priority 2009, dated 2014).

Tests used:
Assay type in all cases: cell-based
[1] = tested on: Pseudomonas aeruginosa, Enterobacter gergoviae, Pseudomonas putida, Salmonella choleraesuis, Escherichia coli, Staphylococcus aureus (mixed inoculum); assay: Preservative efficacy of dimethoxane/BNPD in laundry detergent, repeated bacterial challenge; parameters: key to viable microorganism score (0-8 scale): 0-8 score = number of 1:10 dilutions to reach growth endpoint; details: day 20
Experimental: (§1) Synergy Calculations. The reported synergy indexes are measured and calculated using the formula described below. In this approach, a synergy index of 1 indicates additivity. If the index is less than 1, synergy has occurred, while a synergy index greater than 1 indicates antagonism. Synergy index=CA/Ca+CB/Cb • Ca=minimal concentration of antimicrobial A, alone, producing a 4 log10 microbial kill • Cb=minimal concentration of antimicrobial B, alone, producing a 4 log10 microbial kill
(§2) CA and CB=the concentrations of antimicrobials A and B, in combination, producing the required microbial kill (a 4 log10 microbial kill unless indicated otherwise in a particular Example).
A sample of laundry detergent is treated with dimethoxane, BNPD, and combinations thereof. The samples are inoculated with four times over a four-week period with a 5×10^6 colony forming units per milliliter (CFU/mL) inoculum that includes Pseudomonas aeruginosa ATCC#9027, Enterobacter gergoviae ATCC#33028 Pseudomonas putida ATCC#49128, Salmonella choleraesuis ATCC#10708, Pseudomonas aeruginosa ATCC#10145, Pseudomonas aeruginosa ATCC#15442, Escherichia coli ATCC#11229, and Staphylococcus aureus ATCC#6538. The samples are inoculated on days 0, 2, 7, and 14 and analyzed for bacteria content on days 0, 1, 2, 3, 6, 8, 13, 15, 20, and 27. The bacteria concentrations are determined by serial dilution (1:10) until a growth endpoint is reached. The sample is scored on a 0-8 scale, based upon the number of serial dilutions required to reach the growth endpoint. For example, if a sample requires four 1:10 dilutions before bacterial growth is lost, then the sample receives a score of 4 which represents between 5×10^4 and 5×10^5 viable organisms.

[2] = tested on: Pseudomonas aeruginosa, Enterobacter aerogenes, Escherichia coli, Klebsiella pneumoniae, Staphylococcus aureus, Salmonella choleraesuis (combined cultures); assay: Preservative efficacy of DMX/BNPD in spinning finish emulsion, repeated bacterial challenge; details: ≧6 log10 microbial kill, day 27, post 4th microbial challenge
Experimental: as §1, §2
In this Example, the antimicrobial profiles of dimethoxane (DMX), 2-bromo-2-nitropropane-1,3-diol (BNPD) and combinations of DMX and BNPD are evaluated in a spinning finish emulsion. The spinning finish emulsion is determined to be free of microbial contamination prior to initiation of preservative efficacy evaluations. The spinning finish emulsion is prepared by adding 1 part spinning finish oil to 9 parts distilled water followed by 30 minutes of mixing.
Experimental Setup. Tests are conducted in a 96-deep well block format using a total sample volume of 300 to 600 μl for all evaluations. […]

[3] = tested on: Pseudomonas aeruginosa, Enterobacter aerogenes, Escherichia coli, Klebsiella pneumoniae, Staphylococcus aureus, Salmonella choleraesuis (combined cultures); assay: Preservative efficacy of DMX/BNPD in water-based latex paint, repeated bacterial challenge; details: for log10 viable microorganisms recovered: day 20
Experimental: as §1, §2
In this Example, the antimicrobial profiles of dimethoxane (DMX), 2-bromo-2-nitropropane-1,3-diol (BNPD) and combinations of DMX and BNPD are evaluated in a commercial (interior eggshell) water-based latex paint formulation (pH 7.4). The paint formulation is determined to be free of microbial contamination prior to initiation of preservative efficacy evaluations.
Experimental Setup. Tests are conducted in a 96-deep well block format using a total sample volume of 600 μl for all evaluations. In these samples, no more than 10% of the total volume consists of the biocide and organism solution and all non-matrix additions are normalized for all samples. Each experimental 96-well block contains biocide-treated samples and control samples which lack biocide.
Microorganisms. Twenty-four hour tryptic soy broth cultures are combined in equal parts for formulation inoculation at a final concentration of 5×10^6 CFU/ml. Organisms are added to each sample of the 96-well block and mixed until homogenous. Additionally, bacterial challenges of the paint samples occur on days 0, 2, 7, and 14 of the 28-day test period. Organisms utilized: Pseudomonas aeruginosa (ATCC#15442), Pseudomonas aeruginosa (ATCC#10145), Enterobacter aerogenes (ATCC#13048), Escherichia coli (ATCC#11229), Klebsiella pneumoniae (ATCC#8308), Staphylococcus aureus (ATCC#6538), Salmonella choleraesuis (ATCC#10708).
Enumeration of Viable Organisms. Sample aliquots are removed, at predetermined time points, for the enumeration of surviving microorganisms. Numerical values in the data tables listed below represent the log10 viable microorganisms recovered from individual samples at specific time points and biocide concentrations post microorganism addition. Biocide concentrations resulting in a ≧4 log10 kill of microorganisms, as compared to the preservative-free control, are deemed a significant reduction of viable organisms and are subsequently used for calculating synergy index values.

[4] = tested on: Pseudomonas aeruginosa, Enterobacter gergoviae, Pseudomonas putida, Salmonella choleraesuis, Escherichia coli, Staphylococcus aureus (mixed inoculum); assay: Preservative efficacy of dimethoxane/2-phenoxyethanol in laundry detergent, repeated bacterial challenge; details: day 27
[5] = tested on: Pseudomonas aeruginosa, Enterobacter gergoviae, Pseudomonas putida, Salmonella choleraesuis, Escherichia coli, Staphylococcus aureus (mixed inoculum); assay: Preservative efficacy of dimethoxane/dibromoglutaronitrile in laundry detergent, repeated bacterial challenge; details: day 20
[6] = ≧4 log10 microbial kill, day 20, after four bacterial challenges, ppm active
[7] = minimal concentration alone giving passing score (2 or less)

Q: What does the source list for `O=[N+]([O-])C(Br)(CO)CO` [BNPD, 2-Bromo-2-nitropropane-1,3-diol]?
A: BNPD alone (ppm) ([1]; 4 log10 kill of bacteria): 99 ppm; viable microorganism score (0-8 scale) ([1]; BNPD 44 ppm alone): 4.0; viable microorganism score (0-8 scale) ([1]; BNPD 66 ppm alone): 2.0; viable microorganism score (0-8 scale) ([1]; BNPD 99 ppm alone): 0.0; viable microorganism score (0-8 scale) ([1]; BNPD 148 ppm alone): 0.0; viable microorganism score (0-8 scale) ([1]; BNPD 222 ppm alone): 0.0; viable microorganism score (0-8 scale) ([1]; BNPD 333 ppm alone): 0.0; viable microorganism score (0-8 scale) ([1]; BNPD 500 ppm alone): 0.0; viable microorganism score (0-8 scale) ([1]; BNPD 750 ppm alone): 0.0; BNPD alone (ppm), active concentration necessary for microbial kill [2]: 137 ppm; log10 viable microorganisms recovered ([3]; BNPD 26 ppm alone): 8; log10 viable microorganisms recovered ([3]; BNPD 40 ppm alone): 8; log10 viable microorganisms recovered ([3]; BNPD 59 ppm alone): 8; log10 viable microorganisms recovered ([3]; BNPD 89 ppm alone): 8; log10 viable microorganisms recovered ([3]; BNPD 133 ppm alone): 8; log10 viable microorganisms recovered ([3]; BNPD 200 ppm alone): 8; log10 viable microorganisms recovered ([3]; BNPD 300 ppm alone): 0; log10 viable microorganisms recovered ([3]; BNPD 450 ppm alone): 0; BNPD alone (ppm) [3, 6]: 300 ppm

Q: For `OCCOc1ccccc1` [Combination 2-PE, 2-Phenoxyethanol], which “viable microorganism score (0-8 scale)” value ([4]; 2-PE 585 ppm alone) is on record?
A: 7

Q: What about the “viable microorganism score (0-8 scale)” value ([4]; 2-PE 878 ppm alone) of the same compound?
A: 7

Q: What about the “viable microorganism score (0-8 scale)” value ([4]; 2-PE 1317 ppm alone) of the same compound?
A: 7

Q: What about the “viable microorganism score (0-8 scale)” value ([4]; 2-PE 1975 ppm alone) of the same compound?
A: 7

Q: What about the “viable microorganism score (0-8 scale)” value ([4]; 2-PE 2963 ppm alone) of the same compound?
A: 5

Q: What about the “viable microorganism score (0-8 scale)” value ([4]; 2-PE 4444 ppm alone) of the same compound?
A: 6

Q: What about the “viable microorganism score (0-8 scale)” value ([4]; 2-PE 6667 ppm alone) of the same compound?
A: 6

Q: And the “viable microorganism score (0-8 scale)” value ([4]; 2-PE 10000 ppm alone)?
A: 0

Q: What about the “Min alone, 2-PE (ppm)” value [4, 7] of the same compound?
A: 10000 ppm

Q: For `N#CCCC(Br)(C#N)CBr` (stereo not shown) [DBGN, 2-Bromo-2-(bromomethyl)glutaronitrile], which “viable microorganism score (0-8 scale)” value ([5]; DBGN 3 ppm alone) is on record?
A: 8

Q: What about the “viable microorganism score (0-8 scale)” value ([5]; DBGN 4 ppm alone) of the same compound?
A: 8

Q: And the “viable microorganism score (0-8 scale)” value ([5]; DBGN 7 ppm alone)?
A: 8

Q: What about the “viable microorganism score (0-8 scale)” value ([5]; DBGN 10 ppm alone) of the same compound?
A: 8

Q: And the “viable microorganism score (0-8 scale)” value ([5]; DBGN 15 ppm alone)?
A: 8

Q: And the “viable microorganism score (0-8 scale)” value ([5]; DBGN 22 ppm alone)?
A: 7

Q: What about the “viable microorganism score (0-8 scale)” value ([5]; DBGN 33 ppm alone) of the same compound?
A: 3

Q: And the “viable microorganism score (0-8 scale)” value ([5]; DBGN 50 ppm alone)?
A: 0

Q: What about the “Min alone, DBGN (ppm)” value [5, 7] of the same compound?
A: 50 ppm

Q: For `CC(=O)OC1CC(C)OC(C)O1` (stereo not shown) [DMX, 2,6-Dimethyl-m-dioxan-4-ol acetate], which “DMX alone (ppm)” value ([1]; 4 log10 kill of bacteria) is on record?
A: 1160 ppm

Q: What about the “viable microorganism score (0-8 scale)” value ([1]; DMX 153 ppm alone) of the same compound?
A: 5.0

Q: What about the “viable microorganism score (0-8 scale)” value ([1]; DMX 229 ppm alone) of the same compound?
A: 5.0

Q: And the “viable microorganism score (0-8 scale)” value ([1]; DMX 344 ppm alone)?
A: 5.0

Q: And the “viable microorganism score (0-8 scale)” value ([1]; DMX 516 ppm alone)?
A: 6.0

Q: What about the “viable microorganism score (0-8 scale)” value ([1]; DMX 773 ppm alone) of the same compound?
A: 4.0

Q: What about the “viable microorganism score (0-8 scale)” value ([1]; DMX 1160 ppm alone) of the same compound?
A: 0.0

Q: And the “viable microorganism score (0-8 scale)” value ([1]; DMX 1740 ppm alone)?
A: 0.0

Q: And the “viable microorganism score (0-8 scale)” value ([1]; DMX 2610 ppm alone)?
A: 0.0

Q: What about the “viable microorganism score (0-8 scale)” value ([5]; DMX 76 ppm alone) of the same compound?
A: 8

Q: And the “viable microorganism score (0-8 scale)” value ([5]; DMX 115 ppm alone)?
A: 8

Q: What about the “viable microorganism score (0-8 scale)” value ([5]; DMX 172 ppm alone) of the same compound?
A: 8

Q: What about the “viable microorganism score (0-8 scale)” value ([5]; DMX 258 ppm alone) of the same compound?
A: 7

Q: And the “viable microorganism score (0-8 scale)” value ([5]; DMX 387 ppm alone)?
A: 3

Q: What about the “viable microorganism score (0-8 scale)” value ([5]; DMX 580 ppm alone) of the same compound?
A: 2

Q: And the “viable microorganism score (0-8 scale)” value ([5]; DMX 870 ppm alone)?
A: 2

Q: What about the “viable microorganism score (0-8 scale)” value ([5]; DMX 1305 ppm alone) of the same compound?
A: 0

Q: What about the “Min alone, DMX (ppm)” value [5, 7] of the same compound?
A: 580 ppm

Q: What about the “log10 viable microorganisms recovered” value ([3]; DMX 102 ppm alone) of the same compound?
A: 8

Q: And the “log10 viable microorganisms recovered” value ([3]; DMX 153 ppm alone)?
A: 8

Q: What about the “log10 viable microorganisms recovered” value ([3]; DMX 229 ppm alone) of the same compound?
A: 8

Q: What about the “log10 viable microorganisms recovered” value ([3]; DMX 344 ppm alone) of the same compound?
A: 8

Q: What about the “log10 viable microorganisms recovered” value ([3]; DMX 516 ppm alone) of the same compound?
A: 8

Q: What about the “log10 viable microorganisms recovered” value ([3]; DMX 773 ppm alone) of the same compound?
A: 8

Q: What about the “log10 viable microorganisms recovered” value ([3]; DMX 1160 ppm alone) of the same compound?
A: 8

Q: What about the “log10 viable microorganisms recovered” value ([3]; DMX 1740 ppm alone) of the same compound?
A: 0

Q: And the “DMX alone (ppm)” value [3, 6]?
A: 1740 ppm

Q: And the “viable microorganism score (0-8 scale)” value ([4]; DMX 153 ppm alone)?
A: 7

Q: And the “viable microorganism score (0-8 scale)” value ([4]; DMX 229 ppm alone)?
A: 6

Q: What about the “viable microorganism score (0-8 scale)” value ([4]; DMX 344 ppm alone) of the same compound?
A: 6

Q: What about the “viable microorganism score (0-8 scale)” value ([4]; DMX 516 ppm alone) of the same compound?
A: 6

Q: What about the “viable microorganism score (0-8 scale)” value ([4]; DMX 773 ppm alone) of the same compound?
A: 0

Q: And the “viable microorganism score (0-8 scale)” value ([4]; DMX 1160 ppm alone)?
A: 0

Q: What about the “viable microorganism score (0-8 scale)” value ([4]; DMX 1740 ppm alone) of the same compound?
A: 0

Q: And the “viable microorganism score (0-8 scale)” value ([4]; DMX 2610 ppm alone)?
A: 0

Q: What about the “Min alone, Dimethoxane (ppm)” value [4, 7] of the same compound?
A: 773 ppm
